Measured values: US9049865B2, “Use of fungicidal active substances for controlling mycoses on plants of the palm family” (Bayer Intellectual Property GmbH, priority 2010, dated 2015)
Converted amounts (≈) assume the structure as drawn. “And” between values parts separate entries of the source, which are not always exact repeats. Identical values can stand only once. Like-named read-outs stand apart in the source and are kept apart here.

Test system: Ganoderma boninense
Experiment: Microtiter plate growth test of Ganoderma boninense mycelium in potato-dextrose broth, absorption by photometer
Type: cell-based
Details: for EC50: Ganoderma boninense; for efficacy in controlling basal stem rot (BSR) disease, in words: verbal assessment of the EC50 data
Procedure: • 1. Culturing of the isolates on potato-dextrose agar (PDA) • 2. Preparation of a liquid potato-dextrose broth (PDB) as inoculum • For the development of the mycelium, 10 small pieces of the mycelium were transferred into 200 ml of the liquid potato-dextrose broth (PDB) and cultured for 7 days in a greenhouse cabinet at 26° C. • The mycelium was isolated, transferred into 200 ml of fresh liquid potato-dextrose broth supplemented with 25 mg/l enrofloxacin and comminuted using a homogenizer (5 seconds, Ultra Turrax). Thereafter this mycelial suspension was adjusted to two mycelial densities: • Inoculum A: “High mycelial density” • Homogenized mycelial suspension made up to 400 ml with PDB+enrofloxacin • Inoculum B: “Low mycelial density” • 100 ml of inoculum A made up to 400 ml with PDB+enrofloxacin • 3. Microtiter plate test: • Concentration range from 0.0-0.0064-0.032-0.16-4-20 to 100 ppm for each fungicide (active component) • Fungicide and inoculum were distributed using an automatic dispenser • 4. Evaluation (growth determination): • This is carried out every 2 days (1st evaluation after 4 days) by measuring the absorption over 13 days, using a photometer. II. Results
EC50 & (MEC50): Fungicide concentration at which the fungal growth is reduced by 50%: […]

[1] = G. boninense, high mycelial density, after 6 days, single determinations
[2] = G. boninense, low mycelial density, after 6 days, single determinations
[3] = G. boninense, low mycelial density, after 13 days, single determinations
[4] = 144 h, G. boninense, high mycelial density, after 6 days, single determinations, read-out: EC50 data
[5] = 144 h, G. boninense, high mycelial density, after 6 days, read-out: MEC50s (mean EC50 data)
[6] = 144 h, G. boninense, low mycelial density, after 6 days, single determinations, read-out: EC50 data
[7] = 144 h, G. boninense, low mycelial density, after 6 days, read-out: MEC50s (mean EC50 data)
[8] = 312 h, G. boninense, high mycelial density, after 13 days, read-out: MEC50s (mean EC50 data)
[9] = 312 h, G. boninense, low mycelial density, after 13 days, single determinations, read-out: EC50 data
[10] = 312 h, G. boninense, low mycelial density, after 13 days, read-out: MEC50s (mean EC50 data)
[11] = G. boninense, high mycelial density, after 13 days, single determinations
[12] = 312 h, G. boninense, high mycelial density, after 13 days, single determinations, read-out: EC50 data

SMILES | EC50 data [1] | EC50 data [2] | EC50 data [3] | EC50 [4] | EC50 [5] | EC50 [6] | EC50 [7] | EC50 [8] | EC50 [9] | EC50 [10] | efficacy in controlling basal stem rot (BSR) disease, in words | EC50 (144 h, read-out: EC50 data, G. boninense, low mycelial density, after 6 days, single determinations) | EC50 (144 h, read-out: MEC50s (mean EC50 data), G. boninense, low mycelial density, after 6 days) | EC50 (312 h, read-out: EC50 data, G. boninense, low mycelial density, after 13 days, single determinations) | EC50 (312 h, read-out: MEC50s (mean EC50 data), G. boninense, low mycelial density, after 13 days) | EC50 data [11] | EC50 [12]
CC(C)(C)C(O)C(Oc1ccc(Cl)cc1)n1cncn1 (stereo not drawn) [Triadimenol] | 0.0446 µg/mL and 0.0475 µg/mL and 0.0712 µg/mL and 0.0434 µg/mL and 0.0767 µg/mL | 0.08 µg/mL and 0.1062 µg/mL and 0.1077 µg/mL and 0.1076 µg/mL and 0.0638 µg/mL | 0.0963 µg/mL and 0.0723 µg/mL and 0.1064 µg/mL and 0.1074 µg/mL | 0.0386 µg/mL (≈ 0.131 µM) | 0.052 µg/mL (≈ 0.176 µM) | 0.106 µg/mL (≈ 0.359 µM) | 0.093 µg/mL (≈ 0.314 µM) | 0.06 µg/mL (≈ 0.203 µM) | 0.103 µg/mL (≈ 0.349 µM) | 0.098 µg/mL (≈ 0.331 µM) | similarly effective | – | – | – | – | – | –
CCCN(CCOc1c(Cl)cc(Cl)cc1Cl)C(=O)n1ccnc1 [Prochloraz] | – | 0.3566 µg/mL and 0.5803 µg/mL and 0.5515 µg/mL and 0.6018 µg/mL and 0.5704 µg/mL | 0.6978 µg/mL and 1.0994 µg/mL and 0.7737 µg/mL and 0.8261 µg/mL and 1.1128 µg/mL | – | – | – | – | – | – | – | – | 0.497 µg/mL (≈ 1.32 µM) | 0.519 µg/mL (≈ 1.38 µM) | 0.94 µg/mL (≈ 2.5 µM) | 0.895 µg/mL (≈ 2.38 µM) | – | –
CON=C(C(=O)OC)c1ccccc1CON=C(C)c1cccc(C(F)(F)F)c1 [Trifloxystrobin] | – | – | – | 0.0064 µg/mL (≈ 0.0157 µM) | 0.006 µg/mL (≈ 0.0147 µM) | 0.0064 µg/mL (≈ 0.0157 µM) | 0.006 µg/mL (≈ 0.0147 µM) | 0.01 µg/mL (≈ 0.0245 µM) | – | 0.02 µg/mL (≈ 0.049 µM) | outstanding efficacy | – | – | – | – | 0.0119 µg/mL and 0.0081 µg/mL and 0.0115 µg/mL | 0.0064 µg/mL (≈ 0.0157 µM)
CC(C)(C)C(O)C(Oc1ccc(-c2ccccc2)cc1)n1cncn1 (stereo not drawn) [Bitertanol] | 0.0518 µg/mL and 0.0614 µg/mL and 0.058 µg/mL and 0.0542 µg/mL and 0.0679 µg/mL | – | 0.1355 µg/mL and 0.1360 µg/mL and 0.1146 µg/mL and 0.1235 µg/mL and 0.1014 µg/mL | 0.0801 µg/mL (≈ 0.237 µM) | 0.062 µg/mL (≈ 0.184 µM) | – | 0.061 µg/mL (≈ 0.181 µM) | 0.054 µg/mL (≈ 0.16 µM) | 0.118 µg/mL (≈ 0.35 µM) | 0.121 µg/mL (≈ 0.359 µM) | similarly effective | – | – | – | – | – | –
Cn1cc(C(=O)Nc2ccc(F)cc2-c2ccc(Cl)c(Cl)c2)c(C(F)F)n1 [Bixafen, N-(3′,4′-dichloro-5-fluoro-1,1′-biphenyl-2-yl)-3-(difluoromethyl)-1-methyl-1H-pyrazole-4-carboxamide] | – | – | – | – | 0.07 µg/mL (≈ 0.169 µM) | – | 0.027 µg/mL (≈ 0.0652 µM) | 0.096 µg/mL (≈ 0.232 µM) | – | 0.096 µg/mL (≈ 0.232 µM) | – | – | – | – | – | – | –
OC(Cc1ccccc1Cl)(Cn1nc[nH]c1=S)C1(Cl)CC1 (stereo not drawn) [Prothioconazole] | 0.0069 µg/mL and 0.0087 µg/mL and 0.0117 µg/mL and 0.0073 µg/mL | – | – | 0.0064 µg/mL (≈ 0.0186 µM) | 0.008 µg/mL (≈ 0.0232 µM) | – | 0.012 µg/mL (≈ 0.0349 µM) | 0.009 µg/mL (≈ 0.0261 µM) | – | 0.014 µg/mL (≈ 0.0407 µM) | best activity | – | – | – | – | 0.0084 µg/mL and 0.0068 µg/mL | 0.0064 µg/mL (≈ 0.0186 µM)
Cc1nn(C)c(F)c1C(=O)Nc1ccccc1C(C)CC(C)C (stereo not drawn) [Penflufen, N-[2-(1,3-dimethylbutyl)phenyl]-5-fluoro-1,3-dimethyl-1H-pyrazole-4-carboxamide] | 0.0098 µg/mL and 0.0087 µg/mL | 0.0065 µg/mL (≈ 0.0205 µM) | – | 0.0076 µg/mL (≈ 0.0239 µM) | 0.008 µg/mL (≈ 0.0252 µM) | 0.0064 µg/mL (≈ 0.0202 µM) | 0.006 µg/mL (≈ 0.0189 µM) | 0.022 µg/mL (≈ 0.0693 µM) | – | 0.015 µg/mL (≈ 0.0473 µM) | – | – | – | – | – | – | –
CC(C)(C)C(O)(CCc1ccc(Cl)cc1)Cn1cncn1 (stereo not drawn) [Tebuconazole] | – | – | 0.0065 µg/mL and 0.0067 µg/mL and 0.0072 µg/mL | 0.0064 µg/mL (≈ 0.0208 µM) | 0.006 µg/mL (≈ 0.0195 µM) | 0.0064 µg/mL (≈ 0.0208 µM) | 0.006 µg/mL (≈ 0.0195 µM) | 0.011 µg/mL (≈ 0.0357 µM) | 0.0086 µg/mL (≈ 0.0279 µM) | 0.007 µg/mL (≈ 0.0227 µM) | best activity | – | – | – | – | – | –
O=c1c2cc(F)ccc2nc(-n2cncn2)n1-c1ccc(Cl)cc1Cl [Fluquinconazole] | – | 0.0178 µg/mL and 0.0228 µg/mL and 0.0239 µg/mL and 0.0224 µg/mL and 0.022 µg/mL | 0.0532 µg/mL and 0.0915 µg/mL and 0.0656 µg/mL and 0.0577 µg/mL and 0.075 µg/mL | – | 0.034 µg/mL (≈ 0.0904 µM) | 0.0308 µg/mL (≈ 0.0819 µM) | 0.023 µg/mL (≈ 0.0611 µM) | 0.041 µg/mL (≈ 0.109 µM) | 0.0591 µg/mL (≈ 0.157 µM) | 0.066 µg/mL (≈ 0.175 µM) | – | – | – | – | – | 0.0450 µg/mL and 0.0443 µg/mL and 0.0458 µg/mL and 0.0352 µg/mL and 0.0386 µg/mL | 0.0393 µg/mL (≈ 0.104 µM)
CO/N=C(/C1=NOCCO1)c1ccccc1Oc1ncnc(Oc2ccccc2Cl)c1F [Fluoxastrobin] | – | – | – | – | – | – | 0.036 µg/mL (≈ 0.0785 µM) | – | – | 0.158 µg/mL (≈ 0.344 µM) | less effective | – | – | – | – | – | –
